In brackets after ≈: the same amount, converted by molar mass. Where two headings read alike, the source gives them in different places.
How the values were obtained:
[1] = pKa of model compound; format: physicochemical
[2] = log P of model compound; format: physicochemical
[3] = Solubility; format: physicochemical
[4] = Caco-2 permeability; format: in vitro ADME; settings: human
[5] = Monkey oral bioavailability; settings: in vivo, at 20 mg/kg dose
[6] = Food effect; settings: in vivo
[7] = Polarized light microscopy of drug suspended in buffers with or without sodium chloride; format: physicochemical; settings: in the presence of chloride ion
Description: The common ion effect was studied using dissolution and microscopic methods. The microscopic method was conducted with drug suspended in water, pH 1.2, pH 4 and pH 6.5 buffers with and without sodium chloride. The dissolution of the drug and its granulations were studied using three different 2-step dissolution methods which entails the following: Method #1: simple 2-step buffers at pH 4 from 0-30 minutes and at pH 6.5 from 30-90 minutes. Method #2: simple 2-step buffers with the presence of chloride ion in both steps. Method #3: simple buffer at pH 4 with presence of chloride ion from 0-30 minutes; and buffer with bile salts and surfactants at pH 6.5 from 30-90 minutes. The two steps represent fed stomach and intestinal conditions, respectively.
Formulation Preparation Bulk drug powders were wet granulated with and without excipients. Granules were dried and sized through a #18 mesh screen. Polarized Microscopic Observation Microscopic test was conducted with drug suspended in water, pH 1.2, 4, and 6.5 buffers with and without sodium chloride. Dissolution Test: Four dissolution media were tested. Results of these tests are shown in line-graph formats in FIGS. 3-7. Bulk drug powders were wet granulated with and without excipients. […]
An in-vivo dog study was conducted with beagle dogs (wt=12 kg, n=3). […] Serial of plasma samples were collected, extracted, and analyzed by LC/MS/MS. […]

## CC(=O)NC[C@H]1CN(c2ccc(-c3ccc(CNCc4cnn[nH]4)cc3)c(F)c2)C(=O)O1 [model compound, N-[3-(2-fluoro-4′-{[(3H-[1,2,3]triazol-4-ylmethyl)-amino]-methyl}-biphenyl-4-yl)-2-oxo-oxazolidin-5-(S)-ylmethyl]-acetamide]
[1]
  pKa: 6.8
[2]
  logP: 0.7
[3]; at pH 6.8, read-out: Intrinsic solubility
  solubility: 10 µg/mL (≈ 22.8 µM)
[3]; water, pH 4, water, read-out: Solubility of salt in water
  solubility: 2600 µg/mL
[3]; water, pH 5.4, water, read-out: Solubility of salt in water
  solubility: 200 µg/mL
[3]; water, pH 6.5, water, read-out: Solubility of salt in water
  solubility: 60 µg/mL
[4]
  Papp: 0.5 ×10⁻⁶ cm/s
[5]
  bioavailability: 15%
[6]
  Positive food effect: 4 ×
[7]
  microscopic observation of aggregates: formed aggregates in the presence of chloride ion
